This data set is described as follows: recombinant UMI read abundance after kanamycin selection (control-corrected) (log10(CPM+1)); higher = more efficient recombination; extreme values may be limits of the assay; sequences stand for … in AGTGCAGAGAAAATCGGCCAGTTTTCTCTGCCTGCAGTCCGCATGCCGTGGGACCCCTTGGGTTCTAACCTGTTGCCTAGATTTATGCAGCGGACTGCCTTTCTCCCAAAGTGATAAACCGG…AGGTTGGTTTCACT; site = the 11-nt donor. The method in brief: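 In Escherichia coli, a pool of donor and donor-binding-loop pairs, each with a 12-nt UMI, was tested for the IS621 bridge recombinase. Plating was on IPTG (0.07 mM) plus kanamycin, or without selection, in two replicates. Recombinant UMIs were amplified by PCR across the donor–target junction and sequenced, and counts were reported as log10(CPM+1) after averaging and control-derived scaling.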
With “CCCGGTCCATGGACCGGTTTTCCCGGTAATCCGTATTTGCA (site CCCGGTACTTG)”, the “recombinant UMI read abundance (log10)” value stood at 0.

On to “CCCGGTCCATGGACCGGTTTTCCCGGTAATCCGTATTTGCA (site CCCGGTCCTAG)”, for which the “recombinant UMI read abundance (log10)” value worked out at 0.

On to “CCCGGTCCATGGACCGGTTTTCCCGGTAATCCGTATTTGCA (site CCCGGTCCTCG)”, for which the “recombinant UMI read abundance (log10)” value was 0.

Regarding “CCCGGTCCATGGACCGGTTTTCCCGGTAATCCGTATTTGCA (site CCCGGTCCTGG)”, the “recombinant UMI read abundance (log10)” value stood at 0.

In the case of “CCCGGTCCATGGACCGGTTTTCCCGGTAATCCGTATTTGCA (site CCCGGTCCTTA)”, the “recombinant UMI read abundance (log10)” value is 0.0178.

Consider “CCCGGTCCATGGACCGGTTTTCCCGGTAATCCGTATTTGCA (site CCCGGTCCTTC)”, for which the “recombinant UMI read abundance (log10)” value came out at 0.

On to “CCCGGTCCATGGACCGGTTTTCCCGGTAATCCGTATTTGCA (site CCCGGTCCTTG)”, for which the “recombinant UMI read abundance (log10)” value amounted to 0.

Consider “CCCGGTCCATGGACCGGTTTTCCCGGTAATCCGTATTTGCA (site CCCGGTCCTTT)”, for which the “recombinant UMI read abundance (log10)” value was 0.0121.

For the sequence “CCCGGTCCATGGACCGGTTTTCCCGGTAATCCGTATTTGCA (site CCCGGTGCTTG)”, the “recombinant UMI read abundance (log10)” value came to 0.

Turning to “CCCGGTCCATGGACCGGTTTTCCCGGTAATCCGTATTTGCA (site CCCGGTTCTTG)”, the “recombinant UMI read abundance (log10)” value worked out at 0.

As for “CCCGGTCCATGGACCGGTTTTCCCGGTAATCCGTATTTGCA (site CCCGTTCCTTG)”, the “recombinant UMI read abundance (log10)” value worked out at 0.

On to “CCCGGTCCATGGACCGGTTTTCCCGGTAATCCGTATTTGCA (site CCCTGTCCTTG)”, for which the “recombinant UMI read abundance (log10)” value turned out to be 0.00802.

As for “CCCGGTCCATGGACCGGTTTTCCCGGTAATCCGTATTTGCA (site CCGGGTCCTTG)”, the “recombinant UMI read abundance (log10)” value came to 0.00973.

Turning to “CCCGGTCCATGGACCGGTTTTCCCGGTAATCCGTATTTGCA (site CCTGGTCCTTG)”, the “recombinant UMI read abundance (log10)” value was 0.00597.

Turning to “CCCGGTCCATGGACCGGTTTTCCCGGTAATCCGTATTTGCA (site CGCGGTCCTTG)”, the “recombinant UMI read abundance (log10)” value turned out to be 0.

As to “CCCGGTCCATGGACCGGTTTTCCCGGTAATCCGTATTTGCA (site CTCGGTCCTTG)”, the “recombinant UMI read abundance (log10)” value was found to be 0.00601.

For “CCCGGTCCATGGACCGGTTTTCCCGGTAATCCGTATTTGCA (site GCCGGTCCTTG)”, the “recombinant UMI read abundance (log10)” value was 0.

For the sequence “CCCGGTCCATGGACCGGTTTTCCCGGTAATCCGTATTTGCA (site TCCGGTCCTTG)”, the “recombinant UMI read abundance (log10)” value worked out at 0.00534.

As for “CCCGGTCCATGGACCGGTTTTCCCGGTAATCCGTATTTGCT (site CCCGGTCCTAG)”, the “recombinant UMI read abundance (log10)” value amounted to 0.

For the sequence “CCCGGTCCATGGACCGGTTTTCCCGGTAATCCGTATTTGCT (site CCCGGTCCTCG)”, the “recombinant UMI read abundance (log10)” value came to 0.0027.

As to “CCCGGTCCATGGACCGGTTTTCCCGGTAATCCGTATTTGCT (site CCCGGTCCTGG)”, the “recombinant UMI read abundance (log10)” value was 0.

Take “CCCGGTCCATGGACCGGTTTTCCCGGTAATCCGTATTTGCT (site CCCGGTCCTTG)”: the “recombinant UMI read abundance (log10)” value was 0.

As for “CCCGGTCCATGGACCGGTTTTCCCGGTAATCCGTATTTGTA (site CCCGGTCCTTA)”, the “recombinant UMI read abundance (log10)” value is 0.

For the sequence “CCCGGTCCATGGACCGGTTTTCCCGGTAATCCGTATTTGTA (site CCCGGTCCTTC)”, the “recombinant UMI read abundance (log10)” value is 0.0127.

On to “CCCGGTCCATGGACCGGTTTTCCCGGTAATCCGTATTTGTA (site CCCGGTCCTTG)”, for which the “recombinant UMI read abundance (log10)” value turned out to be 0.

Regarding “CCCGGTCCATGGACCGGTTTTCCCGGTAATCCGTATTTGTA (site CCCGGTCCTTT)”, the “recombinant UMI read abundance (log10)” value worked out at 0.041.

For “CCCGTATCATGGACCGGTTTTCCCGGTAATCCGTATTTGGT (site CCCGTATCTAC)”, the “recombinant UMI read abundance (log10)” value turned out to be 0.563.

As to “CCCGTCGCATGGACCGGTTTTCCCGGTAATCCGTATTTGCT (site CCCGTCGCTAG)”, the “recombinant UMI read abundance (log10)” value came out at 0.795.

As for “CCCTACACATGGACCGGTTTTCCCGGTAATCCGTATTTGTA (site CCCAACACTTA)”, the “recombinant UMI read abundance (log10)” value stood at 0.0262.

Turning to “CCCTACACATGGACCGGTTTTCCCGGTAATCCGTATTTGTA (site CCCCACACTTA)”, the “recombinant UMI read abundance (log10)” value was determined as 0.00329.

“CCCTACACATGGACCGGTTTTCCCGGTAATCCGTATTTGTA (site CCCGACACTTA)”: the “recombinant UMI read abundance (log10)” value stood at 0.0499.

Take “CCCTACACATGGACCGGTTTTCCCGGTAATCCGTATTTGTA (site CCCTACACTTA)”: the “recombinant UMI read abundance (log10)” value was determined as 0.0328.

With “CCCTAGCCATGGACCGGTTTTCCCGGTAATCCGTATTTGTC (site CCCTAGCCTGA)”, the “recombinant UMI read abundance (log10)” value came out at 0.265.

As to “CCCTAGCCATGGACCGGTTTTCCCGGTAATCCGTATTTGTC (site CCCTAGCCTGC)”, the “recombinant UMI read abundance (log10)” value stood at 0.

The values are drawn from the supplement of paper PMC11208160.
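Also: IS621 bridge recombinase in Escherichia coli cells against a fixed T5 target plasmid.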
